Molecular target: T1, protein:farnesyl transferase (Oryctolagus cuniculus, UniProt G1SFC8+G1T7D9)
T1 construct: immobilised CAAX peptide A and 3H-FPP as substrates
Test: Inhibition of protein:farnesyl transferase activity in rabbit reticulocyte lysate (pepAsep/pepBsep, 3H-FPP)
Format: biochemical
Settings: read-out: IC50 -value, 80 pmol peptide on Sepharose beads, 0.7 μM 3H-FPP, 30 min, 37° C., pepAsep minus pepBsep dpm
Description: Commercially available rabbit reticulocyte lysate contains enzymes necessary for protein-isoprenylation, such as protein:farnesyl transferase activity (Vorburger, K., Kitten, G. T. and Nigg, E. G., EMBO J. 8 (1989) 4007-4013) and protein:geranylgeranyl transferase (Maltese, W. A. and Robishaw, J. D., J. Biol. Chem. 265 (1990) 18071-18074). Using pepAsep (example I) as substrate and pepBsep (example I) as control the assay of protein:farnesyl transferase activity was performed as follows: In 25 μl of a mixture containing 5 μl of pepAsep or pepBsep (both containing an equal quantity of peptide), 13 μl rabbit reticulocyte lysate (promega), 0.5 mM MgCl2, 1 mM DTT, 50 mM Tris-HCl (pH 7.4) and [^3 H]-farnesyl pyrophosphate (^3 H-FPP; concentration as indicated in the figures; specific radioactivity 15 Ci/mmol; ARC, USA) the incubation was performed at 37° C. for 30 min with continuous shaking. […] The radioactivity bound to the Sepharose was measured in a Packaged Tricarb liquid scintillation counter. […]
80 pmol of pepAsep and pepBsep/5 μl Sepharose were incubated for 30 minutes in the presence of 0.7 μM of [^3 H]-FPP and the indicated concentrations of the farnesyl pyrophosphate analogues FPPA1 and FPPA2 as mentioned in Example IV. The farnesylation activity was calculated as ^3 H-dpm bound to pepAsep minus the pepBsep-bound-dpm and expressed as percentage of control (without inhibitor).

Compound `CC(C)=CCCC(C)=CCCC(C)=CCP(=O)(O)OP(=O)(O)O` [FPPA2, farnesyl phosphonophosphate] has an IC50 of 290 ± 20 nM.

— US5952473A, “Reagent and kit for determining isoprenylating activity and inhibition thereof” (priority 1993, dated 1999)
